Experimental findings from patent publication US6344219B1, “Chinese drug composition for treatment of peptic ulcer and preparation thereof” (priority 1995, dated 2002) are described below.

The subject of assay [1] is chronic gastric ulcer caused by acetic acid burn. The assay can be described thus: Chronic gastric ulcer of rats caused by acetic acid burn (adapted Takagi's method). In kind it is in vivo, Rats(SD). As to conditions: 200 mg/kg × 12 day ig qd. As to the method: The experiment was conducted using adapted Takagi's method. Fifty rats, 165+15 g, male and female half and half, after abstaining food without abstaining water for 24 hr, were primary anesthetized with ether and their skin were sterilized as regular method. After abdominal section the stomach was gently pulled out. A small glass tube with 0.5 cm inner diameter and 3 cm length was inserted into the stomach near the lesser curvature stomach gland of pylorus using middle finger to resist against the opposite stomach wall. 0.1 ml acetic acid was injected into stomach through the glass tube. After 30 sec counting with stopwatch, acetic acid was sucked out and the stomach was rinsed with sterilized normal saline for three times. Remove out the glass tube and absorb the normal saline on its external surface with sterilized filter paper the stomach was put into the abdomen then sew up the wound and sterilize. The rats was randomly divided into 5 groups according to sex and weight on the second day of operation. The rats were administered with drug ig qd×12 day, after abstaining food overnight then were executed by decapitation. The ulcer volumes were measured using the method of injection ink with a micro syringe.

Assay [2] concerns stress ulcer of rats induced by water soaking. The assay can be described thus: Effect to stress ulcer (Takagi's method, water soaking). In kind it is in vivo, Rats(SD). As to conditions: 100 mg/kg qd × 2. The protocol:
The model was established following Takagi's method. Takagi, et al., The Effects of Drugs on the production and Recovery Processes of the Stress Ulcer, 18:9-18 (1968); and Takagi et al., A New Method For The Production of Chronic Gastric Ulcer in Rats and The Effect of Several Drugs on its Healing, Japan J. Pharmacol Japan J. Pharmacol 19:418-426 (1969). Fifty rats, 159+13 g, male and female half and half, were randomly divided into five groups according to sex and weight and were administered with drugs daily twice, once both in the morning and afternoon for two days. From the beginning of the experiments, food was abstained but water was freely fed. One hour after the last administration, rats were bound on a board and were soaked in a thermostatic flowing water bath at […] for 18 hr then were executed by decapitation. Take out the stomach by abdominal section and ligate the pylorus first then inject 10 ml of 1% formaldehyde solution through cardia of stomach and ligate the cardia. After formalizing the stomach in 1% formaldehyde solution for 10 min, the stomach was cut along the greater curvature with scissor, rinse with normal saline solution for three times and absorb with filter paper, then flatten it on a glass plate and examine the degree of mucosa ulcer and count the number using magnifier. […]

The subject of assay [3] is pyloric ligation ulcer. Briefly: Effect to the ulcer of pyloric ligation (Shay's method). As to conditions: rats; dose 200. In kind it is in vivo, Rats(SD). The protocol:
The experiment is conducted following Shay's method. Fifty rats, 190+20 g, male and female half and half, were randomly divided into five groups according to weight and sex and were administered as 1-1 for three days. Food was abstained but water was freely fed before 48 hr of the operation. After 2 hr of the last administration, operation of pyloric ligation was conducted then both food and water were abstained. After 48 hr the rats were executed and their gastric juice was collected for measuring the volume, and determining the free acid, total acid and pepsin following Metle's method.

In assay [4] the test system is gastric ulcer induced by Reserpine. The assay can be described thus: Gastric ulcer of rats induced by Reserpine. The class given is in vivo, Rats(SD). As to conditions: 200.0 mg/kg ig once daily for three days, Reserpine 5 mg/kg sc. As to the method: Fifty rats, 180±18 g, male and female half and half, were divided into five groups and were treated with drug ig once daily for three days. After abstaining food for 24 hr Reserpine 5 mg/kg was injected subcutaneously. The rats were executed by decapitation after 18 hr and the gastric ulcer was examined as the same method of 1-1.

Assay [5] concerns ulcer induced by Histamine. Briefly: Ulcer of mice induced by Histamine. In kind it is in vivo, Mice(ICR). As to conditions: 200 mg/kg bid × 2 ig, Histamine 80 mg/kg ip. The protocol:
Forty mice, male 23±2 g, were divided into five groups, and were administrated once both in the morning and afternoon of everyday by ig. Mice were abstained to feed food for 24 hr except water, then administered Histamine 80 mg/kg, ip, after abstaining food for 8 hr were executed. Take out the stomachs and examine ulcer index using the same method as 1-1.

For `CNC(=C[N+](=O)[O-])NCCSCc1ccc(CN(C)C)o1.Cl` [Ranitidine, Ranitidine hydrochloride], the “rate of inhibition (%)” value in assay [1] was 50.7%; in assay [2], 41.5%; in assay [4], 78.2%; in assay [5] it was 87.8%. For the same compound, the “ulcer volume (μl, × ± SD)” value in assay [1] stood at 1.72 ± 1.46 µL. The “ulcer index (x ± SD)” value in assay [2] amounted to 2.14 ± 0.46; in assay [4], 7.6 ± 2.0; in assay [5], 1.4 ± 3.5. Besides, the “ulcer index” value in assay [3] stood at 1.22 ± 1.44.
